Data as given in patent US12059413B2, “Methods of inhibiting viruses using compositions targeting TSG101-ubiquitin interaction” (The Research Foundation for the State University of New York, priority 2016, dated 2024).
Values belong to the compound of their own block, whether it stands above or below them.

How the values were obtained:
[1] = Conversion of prazoles to sulfenamide / half-life; type: physicochemical
Description: To measure sulfenamide formation: Dissolve each compound in water/buffer and measure the formation of colored compounds by UV-visible absorption, since the initial compound is colorless and the final compound (the sulfenamide dimer) is colored.

Tsg101 UEV domain = target: T1, Tsg101 UEV domain (Homo sapiens, UniProt Q99816); assay: NMR / LC-MS binding of compound to Tsg101 UEV domain
T1 construct: Tsg101 UEV domain (residues 2-145) was encoded in a pET-28b vector; His6-TEV site (N, cleaved yes); made in house; host or cells: E. coli Rosetta 2 (DE3) pLysS
T1 sequence (Q99816 2-145): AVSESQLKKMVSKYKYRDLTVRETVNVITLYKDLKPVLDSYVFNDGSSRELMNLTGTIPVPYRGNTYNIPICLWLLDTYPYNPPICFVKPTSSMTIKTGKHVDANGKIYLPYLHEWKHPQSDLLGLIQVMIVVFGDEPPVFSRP
Procedure: N16 (20 mM solution, DMSO) was added to Tsg101 UEV domain in a 10:1 ratio (N16 excess).
For binding studies using NMR spectroscopy, the following complexes were made: Tsg101 UEV-N16, UEV-PTAP, UEV-Ub, UEV-N16-PTAP, and UEV-N16-Ub, all in Tsg101 NMR buffer: 20 mM potassium phosphate, 50 mM NaCl, pH 5.8, with UEV concentration of 200 μM.

Tsg101 = target: T2, Tsg101 (Homo sapiens, UniProt Q99816); assay: NWU screening / in vitro binding assay
T2 sequence (Q99816 2-145 limits assumed): T1 sequence (Q99816 2-145)
Description: Pantoprazole, Lansoprazole/Dexlansoprazole (dexlansoprazole is the active enantiomer of the racemic lansoprazole), and Rabeprazole were in the NWU screen but were not considered hits.

293T cells = assay: Metabolic activity, WST-1 assay, 293T cells; type: cell-based; conditions: metabolic measurements, WST-1 reagent
Procedure: FIG. 20A-C. N16 inhibition is virus-specific. A) N16 IC50 for Hela and 293T cells. […] Values were calculated by measuring metabolic activity (WST-1 Assay, Roche Applied Science) after cells were grown for 24 hr in N16. Data points represent the mean of 2 assays, 3 time points each for each cell line. […] Values in the absence or presence of N16 (50 uM) were 12% and 13%, respectively). C) N16 effect on EGF-stimulated EFGR degradation. Cells maintained for 24 hr in media containing DMSO alone or DMSO and N16 were stimulated with EGF ligand for a 90 min period and then assessed for EGFR steady-state level by Western analysis. EGFR levels for unstimulated and stimulated sample pairs are shown. A) n=2; B) n=2; C) n=2.
FIG. 27A-C. Effect of N-Acetyl Cysteine (NAC) on N16-mediated inhibition of VLP production and intracellular Gag accumulation. […] A concentration of 3 mM NAC was therefore used to test the effect of the antioxidative reagent on the N16 inhibitory effect. N16 (0, 12, 25, 50, 75, and 100 uM) was added 8.5 hr prior to transfection with pNL4-3ΔEnv. Cells were harvested 16 hr later. […] C) Quantitative analysis. n=2.
Cells were grown in 96-well trays for 24 hr with increasing levels of drug, metabolic activity was measured using WST-1colorimetric assay (Roche), and IC50 values were calculated (Prism 6, Graph Pad Software Inc.).

proteasome = proteasome (Homo sapiens, UniProt P20618+P28074); conditions: Gelman et al.; cited from earlier work

slowness of sulfenamide conversion relative to Rabeprazole [1]: ~2 ×
residue bound in Tsg101 UEV (NMR and fluorescence perturbances) (Tsg101 UEV domain): bind to residue C73
binding in the NWU screening assay (Tsg101): bound weakly
Compound: Cc1c(OCC(F)(F)F)ccnc1C[S+]([O-])c1nc2ccccc2[nH]1 (racemic) [Lansoprazole]

concentration up to which 293T cells were robust (293T cells): at least 4 mM
Compound: CC(=O)N[C@@H](CS)C(=O)O [NAC, N-Acetyl Cysteine]

Compound: CC(C)C[C@H](NC(=O)[C@H](Cc1ccccc1)NC(=O)c1cnccn1)B(O)O [bortezomib]
concentration giving proteasome inhibition, previous studies (proteasome): ≥ 5 nM
